Laboratory results: PMC9363482, “The crystal structure of Cry78Aa from Bacillus thuringiensis provides insights into its insecticidal activity” (Communications Biology, 2022)

What was measured:
Cry78Aa (Cry78Aa1) = target: T1, Cry78Aa (Cry78Aa1) (Bacillus thuringiensis, UniProt A0A3S6Q0Y2); settings: 20 mM Tris-HCl pH 8.0, 25 °C; one-site binding model; 50 mM sugar into 150 µM protein
T1 construct: ITC section says only 'Cry78Aa protein'

[1] = other: SDS-PAGE under mild denaturing conditions

T1 sequence (A0A3S6Q0Y2 1-359 limits assumed): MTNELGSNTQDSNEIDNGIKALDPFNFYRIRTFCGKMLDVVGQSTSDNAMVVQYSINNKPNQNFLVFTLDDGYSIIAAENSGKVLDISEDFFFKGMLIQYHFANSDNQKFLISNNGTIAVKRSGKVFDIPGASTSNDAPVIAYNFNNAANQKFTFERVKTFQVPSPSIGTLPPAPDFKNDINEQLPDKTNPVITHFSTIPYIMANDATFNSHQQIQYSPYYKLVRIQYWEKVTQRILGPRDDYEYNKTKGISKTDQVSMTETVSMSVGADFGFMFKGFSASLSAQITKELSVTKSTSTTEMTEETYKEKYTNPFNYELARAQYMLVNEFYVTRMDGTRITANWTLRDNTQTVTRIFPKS

Molecule | Kd (Cry78Aa (Cry78Aa1)) [mM] | percent of the sample as oligomers or aggregates in 0.1% SDS [1]
CC(=O)N[C@H]1C(O)O[C@H](CO)[C@H](O)[C@@H]1O (stereo partly drawn) [GalNAc] | ~9.8 | 
OC[C@H]1O[C@@H](O[C@H]2[C@H](O)[C@@H](O)C(O)O[C@@H]2CO)[C@H](O)[C@@H](O)[C@H]1O (stereo partly drawn) [lactose] | ~10.2 | 
Cry78Aa_(155-359) |  | ~30% of the total sample loaded onto each lane
